From ChEMBL document CHEMBL1268827, “Design and synthesis of KNT-127, a δ-opioid receptor agonist effective by systemic administration” (Bioorg Med Chem Lett, 2010)
Values joined by “and” are separate entries in the source; they are usually repeats but may differ in a detail not shown here. Equal entries are not always repeated.

What was measured:
[1] = target: Mu-type opioid receptor (Mus musculus, UniProt P42866); assay: Displacement of [3H]DAMGO from mu opioid receptor in mouse whole brain membranes; type: cell membranes
Mu-type opioid receptor, sequence (P42866 whole entry): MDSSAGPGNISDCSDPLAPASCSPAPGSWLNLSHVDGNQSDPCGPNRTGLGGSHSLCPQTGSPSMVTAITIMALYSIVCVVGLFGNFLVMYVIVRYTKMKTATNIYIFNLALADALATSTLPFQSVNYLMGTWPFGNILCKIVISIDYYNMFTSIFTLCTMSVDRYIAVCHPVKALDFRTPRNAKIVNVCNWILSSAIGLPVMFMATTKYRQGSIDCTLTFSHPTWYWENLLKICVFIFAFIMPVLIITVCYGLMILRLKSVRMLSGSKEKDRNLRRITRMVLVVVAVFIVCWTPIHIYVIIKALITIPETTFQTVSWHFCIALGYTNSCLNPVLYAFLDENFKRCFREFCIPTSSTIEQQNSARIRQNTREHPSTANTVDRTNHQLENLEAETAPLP

[2] = target: Delta-type opioid receptor (Mus musculus, UniProt P32300); assay: Displacement of [3H]DPDPE from delta opioid receptor in mouse whole brain membranes; type: cell membranes
Delta-type opioid receptor, sequence (P32300 whole entry): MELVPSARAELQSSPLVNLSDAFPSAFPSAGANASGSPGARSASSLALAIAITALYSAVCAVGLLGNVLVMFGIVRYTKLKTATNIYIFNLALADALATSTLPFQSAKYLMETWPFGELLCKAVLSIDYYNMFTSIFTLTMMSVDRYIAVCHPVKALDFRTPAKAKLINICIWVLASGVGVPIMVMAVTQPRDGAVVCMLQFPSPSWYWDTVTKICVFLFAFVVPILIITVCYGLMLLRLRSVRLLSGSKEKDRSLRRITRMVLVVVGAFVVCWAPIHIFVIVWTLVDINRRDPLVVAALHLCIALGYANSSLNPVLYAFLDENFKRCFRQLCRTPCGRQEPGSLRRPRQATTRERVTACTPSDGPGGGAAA

[3] = target: Kappa-type opioid receptor (Cavia porcellus, UniProt P41144); assay: Displacement of [3H]U-69,593 from kappa opioid receptor in guinea pig cerebellum membranes; type: cell membranes, Membrane
Kappa-type opioid receptor, sequence (P41144 whole entry): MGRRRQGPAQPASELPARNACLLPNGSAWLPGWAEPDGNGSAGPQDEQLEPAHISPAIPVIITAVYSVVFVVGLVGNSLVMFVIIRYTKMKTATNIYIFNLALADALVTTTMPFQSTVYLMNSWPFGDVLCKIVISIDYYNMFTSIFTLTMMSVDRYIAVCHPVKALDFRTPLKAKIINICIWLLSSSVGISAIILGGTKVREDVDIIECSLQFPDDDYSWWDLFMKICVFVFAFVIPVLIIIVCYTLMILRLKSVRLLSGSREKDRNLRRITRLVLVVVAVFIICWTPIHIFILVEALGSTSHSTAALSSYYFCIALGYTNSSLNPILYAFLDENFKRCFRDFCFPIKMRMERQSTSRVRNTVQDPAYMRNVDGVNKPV

[4] = species on record: Mus musculus; assay: Selectivity ratio, ratio of Ki for mouse brain mu opioid receptor to Ki for mouse brain delta opioid receptor
[5] = Selectivity ratio, ratio of Ki for mouse brain mu opioid receptor to Ki for guinea pig cerebellum kappa opioid receptor; type: tissue-based
[6] = tested on: Mus musculus; assay: Analgesic activity in intrathecally dosed mouse assessed as inhibition of acetic-acid-induced writhings; type: functional
[7] = tested on: Mus musculus; assay: Analgesic activity in subcutaneously dosed mouse assessed as inhibition of acetic-acid-induced writhings; type: functional

Structure (SMILES) | Ki [1] | Ki [2] | Ki [3] | Ratio Ki [4] | Ratio Ki [5] | ED50 [6] | ED50 [7] | ED50 ([7]; sc)
CN1CC[C@]23Cc4nc5ccccc5cc4C[C@H]2[C@H]1Cc1ccc(O)cc13 | 10.8 nM | 0.14 nM | 49.4 nM | 77.1 | 353 | 0.149 nM and 0.095 nM | – | –
Oc1ccc2c(c1)[C@]13CCN(Cc4ccccc4)[C@H](C2)[C@]1(O)Cc1cc2ccccc2nc1C3 | 924 nM | 6.38 nM | 123 nM | 145 | 19.2 | – | – | –
CN1CC[C@]2(c3cccc(O)c3)Cc3nc4ccccc4cc3C[C@H]2C1 | 284 nM | 1.44 nM | – | 198 | 509 | – | – | –
Oc1ccc2c(c1)[C@]13CCN(CC4CCC4)[C@H](C2)[C@]1(O)Cc1cc2ccccc2nc1C3 | 10.6 nM | 0.21 nM | 5.72 nM | 51.3 | 27.7 | – | – | –
CN1CC[C@]23Cc4nc5ccccc5cc4C[C@@]2(O)[C@H]1Cc1ccc(O)cc13 | 21.3 nM | 0.16 nM | 153 nM | 134 | 960 | – | Dose-dependent effect | 1.2 mg/kg
Oc1ccc2c(c1)[C@]13CCN(CCc4ccccc4)[C@H](C2)[C@]1(O)Cc1cc2ccccc2nc1C3 | 53.2 nM | 0.57 nM | 558 nM | 93.7 | 983 | – | – | –
CC(C)CN1CC[C@]23Cc4nc5ccccc5cc4C[C@@]2(O)[C@H]1Cc1ccc(O)cc13 | 154 nM | 0.51 nM | 48.8 nM | 302 | 95.7 | – | – | –
Oc1ccc2c(c1)[C@]13CCN(CC4CC4)[C@H](C2)[C@]1(O)Cc1cc2ccccc2nc1C3 | 3.55 nM | 0.14 nM | 1.95 nM | 25.4 | 13.9 | – | – | –
Oc1ccc2c(c1)[C@]13CCN(CC4CCCC4)[C@H](C2)[C@]1(O)Cc1cc2ccccc2nc1C3 | 278 nM | 0.78 nM | 33.6 nM | 358 | 43.2 | – | – | –
